Experimental data reported in patent US20250065017A1, “Fractionating Extracellular Matrix to Modulate Bioactivity and the Host Response” (University of Pittsburgh - Of the Commonwealth System of …, priority 2014, published 2025).

Assays:
Sprague Dawley rats = experiment: Rat skeletal muscle injury model: collagen deposition and myogenesis; type: in vivo; conditions: UBM implant
Protocol: An established rodent skeletal muscle injury model was used to evaluate the effect of the COX1/2 inhibitor, Aspirin, on the ECM scaffold mediated constructive remodeling response. Briefly, three days prior to the surgical procedure, animals were randomly assigned to either the Aspirin treated (3 mg/mL Aspirin in drinking water) or control (vehicle) group. Bilateral 1.5 cm×1.5 cm partial thickness defects were created in the abdominal musculature. A size-matched pre-cast UBM hydrogel and an overlying 2×2 cm single layer sheet of UBM was then placed in the muscle defect area. The remodeling response was evaluated following 3, 7, 14, and 35 days by quantitative histomorphologic metrics (Wolf M T, Carruthers […], Crapo P M, Huber A, Burnsed O A, Londono R, Johnson […] and others. Polypropylene surgical mesh coated with extracellular matrix mitigates the host foreign body response. J Biomed Mater Res A 2013 and Wolf […], Brennan-Pierce E P, Johnson S A, Carruthers […] hydrogel derived from decellularized dermal extracellular matrix. Biomaterials 2012;33(29):7028-38), including characterization of macrophage phenotype and neo tissue deposition. Thirty-two female Sprague Dawley rats (350-400 g at implantation) were purchased from Harlan Laboratories. […] Salicylates in whole blood were determined using the Salicylates Detection Kit from Neogen according to the manufacturer's instructions. […] Fast and Slow Myosin Heavy Chain: Myosin heavy chain positive cells in the defect area were determined by immunolabeling for fast and slow myosin heavy chain as previously described (Turner N J, Yates A J, Jr., Weber […], Stolz D B, Gilbert […]. Xenogeneic extracellular matrix as an inductive scaffold for regeneration of a functioning musculotendinous junction. Tissue Eng Part A 2010;16(11):3309-17; Valentin J E, Turner N J, Gilbert […]. Functional skeletal muscle formation with a biologic scaffold. Biomaterials 2010;31(29):7475-84; and Wolf […]. Biologic scaffold composed of skeletal muscle extracellular matrix. […]

[1] = system: primary rat bone marrow derived macrophages; experiment: PGE2 secretion in primary BMDM; type: cell-based; conditions: UBM hydrogel 0.5 mg/mL 48 hours; inhibitor pre-treatment 1 hour
Protocol: Rat bone marrow mononuclear cells were matured to macrophages as previously described ([…], Forster O. Differentiation of rat bone marrow cells into macrophages under the influence of mouse L929 cell supernatant. J Leukoc Biol 1987;41(1):83-91). […] The cell pellet was resuspended in red blood cell (RBC) lysis buffer (155 mM NH4Cl, 10 mM KHCO3, 0.9% EDTA in distilled water) and incubated for 15 minutes on ice. Cell debris was removed by centrifugation and the cell pellet was resuspended in macrophage maturation media (DMEM high glucose, 10% heat inactivated FBS, 20% L929 fibroblast conditioned media, 0.5 mM MEM non-essential amino acids, 2 mM L-glutamine, 10 mM Hepes pH 7.4, 1% penicillin/streptomycin, 0.12% 50 mM 2-mercaptoethanol). Cells were seeded at a density of 1 million/mL in 6 well plates and incubated at 37° C./5% CO2. Media was changed every 2-3 days for 7 days. Matured bone marrow derived macrophages (BMDMs) were treated with 1 mL of StemPro® Accutase® (Invitrogen), incubated at 37° C. for 10 minutes, and detached with gentle pipetting. The cell suspension was collected and centrifuged for 5 mins at 1400 rpm. […] Secreted factor concentrations in the culture supernatants were determined using commercially available ELISA kits (PGE2, PGF2α, ENZO Life Sciences) and IL-1RA (R&D Systems)) according to the manufacturer's instructions.

SMILES: CC(=O)Oc1ccccc1C(=O)O [Aspirin]
- reduction in collagen deposition (Sprague Dawley rats; 35 day time point, 3 mg/mL Aspirin in drinking water): 24%
- reduction in myogenesis (myogenic index) compared to non-treated controls (Sprague Dawley rats; 35 days post implantation): 4 fold
- in vivo reduction in myogenesis (Sprague Dawley rats): 79%
- PGE2 production [1]: reduced PGE2 production to baseline levels
